From US20260130933A1, “PHARMACEUTICAL COMPOSITION FOR PREVENTION OR TREATMENT OF NEPHROPATHY AND/OR DIABETES MELLITUS, COMPRISING ENAVOGLIFLOZIN” (DAEWOONG PHARMACEUTICAL CO., LTD., priority 2022, published 2026)

Experiment: Example 3: phase 3 trial, enavogliflozin 0.3 mg vs dapagliflozin 10 mg once a day for 24 weeks added to metformin and gemigliptin in patients with type 2 diabetes (same endpoints, rescue drug)
Format: in vivo, human
Method: 1) when Metformin (≥1,000 mg/Day) was Administered at a Constant Dose for at Least 8 Weeks Prior to Pre-Visit (Pre-Screening) • Metformin (≥1,000 mg/day) and gemigliptin (50 mg/day) were co-administered during the 8-week stabilization period. […] 4) when Metformin (≥1,000 mg/Day) and Gemigliptin (50 mg/Day) were Co-Administered at Constant Doses for at Least 8 Weeks Prior to Pre-Visit (Prescreening) • Without a separate stabilization period, Pre-visit (pre-screening) was Visit 1 (screening).
Subjects who met the inclusion/exclusion criteria continued to receive metformin and gemigliptin while receiving a placebo of the clinical trial drug in a single-blind (subject-blinded) state for a 2-week run-in period.
Here, the randomized subjects were stratified according to the administration therapy (co-administration with two or less agents (one or two agents) or three or more agents) of a conventional hypoglycemic agent (before washout of another hypoglycemic agent) within 24 weeks prior to obtaining written informed consent and by an HbA1c value (<8% or ≥8%) at Visit 1 (screening) measured in the central laboratory.
The randomized subjects were administered two tablets of the clinical trial drug corresponding to each administration group once a day, and then visited the institution at weeks 6, 12, 18, and 24 during the 24-week administration period to conduct efficacy and safety assessments. In addition, during the clinical trial period, they were instructed to exercise regularly and control their diet without changing their daily life patterns.
• 1) Change in HbA1c at week 24 after administration of clinical trial drug compared to Visit 2 (randomization)
• 1) Change in HbA1c at each time point of weeks 6, 12, and 18 after administration of clinical trial drug compared to Visit 2 (randomization) • 2) Change in FPG at each time point of weeks 6, 12, 18, and 24 after administration of clinical trial drug compared to Visit 2 (randomization) • 3) Proportion of subjects achieving HbA1c<7% at each time point of weeks 6, 12, 18, and 24 after administration of clinical trial drug • 4) Proportion of subjects achieving HbA1c<6.5% at each time point of weeks 6, 12, 18, and 24 after administration of clinical trial drug • 5) Proportion of subjects achieving therapeutic response (HbA1c change (HbA1c at Visit 2—HbA1c at each evaluation time point)>0.5% or HbA1c<7% at each evaluation time point compared to Visit 2 (randomization)) at each time point of weeks 6, 12, 18, and 24 after administration of clinical trial drug • 6) Proportion of subjects achieving therapeutic response (HbA1c change (HbA1c at Visit 2—HbA1c at each evaluation time point)>0.7% or HbA1c<7% at each evaluation time point compared to Visit 2 (randomization)) at each time point of weeks 6, 12, 18, and 24 after administration of clinical trial drug • 7) Proportion of subjects achieving therapeutic response (HbA1c change (HbA1c at Visit 2—HbA1c at each evaluation time point)>1% or HbA1c<7% at each evaluation time point compared to Visit 2 (randomization)) at each time point of weeks 6, 12, 18, and 24 after administration of clinical trial drug

[1] = week 12, per-protocol set, enavogliflozin 0.3 mg, dapagliflozin 10 mg
[2] = week 18, modified per-protocol set 1, enavogliflozin 0.3 mg vs dapagliflozin 10 mg
[3] = week 18, modified per-protocol set 1, enavogliflozin 0.3 mg, dapagliflozin 10 mg
[4] = week 18, modified per-protocol set 2

OC[C@H]1O[C@@H](c2cc(Cc3ccc(C4CC4)cc3)c(Cl)c3c2CCO3)[C@H](O)[C@@H](O)[C@@H]1O [Enavogliflozin, (2S,3R,4R,5S,6R)-2-(7-chloro-6 (4-cyclopropylbenzyl)-2,3-dihydrobenzofuran-4-yl)-6-(hydroxymethyl)tetrahydro-2H-pyran-3,4,5-triol]
HbA1c, Median [1]: 6.83%
Subjects achieving HbA1c target of <6.5%, (%) [1]: 23.08%
Subjects achieving HbA1c target of <7%, % [1]: 67.52%
body weight, Median [1]: 65.80 kg
Subjects achieving therapeutic glycemic response 1, % (week 12, per-protocol set, response 1 = HbA1c change >0.5% or HbA1c <7%, enavogliflozin 0.3 mg, dapagliflozin 10 mg): 89.74%
Subjects achieving therapeutic glycemic response 2, % (week 12, per-protocol set, response 2 = HbA1c change >0.7% or HbA1c <7%, enavogliflozin 0.3 mg, dapagliflozin 10 mg): 85.47%
Subjects achieving therapeutic glycemic response 3, % (week 12, per-protocol set, response 3 = HbA1c change >1% or HbA1c <7%, enavogliflozin 0.3 mg, dapagliflozin 10 mg): 78.63%
FPG change from baseline, LS mean (SE) (week 18): −27.77(1.63) mg/dL
HDL-C change from baseline, LS mean (SE) (week 18): 3.82(0.64) mg/dL
HOMA-IR change from baseline, LS mean (SE) (week 18): −1.14(0.11)
HOMA-β change from baseline, LS mean (SE) (week 18): 5.97(2.27)
HbA1c change from baseline, LS mean (SE) (week 18): −0.83(0.05) % p
LDL-C change from baseline, LS mean (SE) (week 18): 0.29(1.63) mg/dL
Subjects achieving therapeutic response (HbA1c change >0.5% or HbA1c<7%) (week 18): 82.91%
UACR change from baseline, LS mean (SE) (week 18): −11.08(3.89) g/kg
UGCR change from baseline, LS mean (SE) (week 18): 58.74(2.33) mg/mg
adiponectin change from baseline, LS mean (SE) (week 18): 0.78(0.33) μg/mL
body weight change from baseline, LS mean (SE) (week 18): −3.16(0.24) kg
diastolic blood pressure change from baseline, LS mean (SE) (week 18): −3.41(0.71) mmHg
fasting C-peptide change from baseline, LS mean (SE) (week 18): −0.08(0.02) ng/mL
leptin change from baseline, LS mean (SE) (week 18): −1.46(0.52) ng/ml
systolic blood pressure change from baseline, LS mean (SE) (week 18): −6.82(0.92) mmHg
total cholesterol change from baseline, LS mean (SE) (week 18): 4.27(1.94) mg/dL
triglyceride change from baseline, LS mean (SE) (week 18): −11.64(4.46) mg/dL
FPG change from baseline, LS mean difference (week 18, vs dapagliflozin): -4.22 mg/dL
HDL-C change from baseline, LS mean difference (week 18, vs dapagliflozin): 0.40 mg/dL
HOMA-IR change from baseline, LS mean difference (week 18, vs dapagliflozin): −0.13
HOMA-β change from baseline, LS mean difference (week 18, vs dapagliflozin): 1.48
HbA1c change from baseline, LS mean difference (week 18, vs dapagliflozin): −0.07 % p
LDL-C change from baseline, LS mean difference (week 18, vs dapagliflozin): -1.10 mg/dL
Odds ratio for achieving HbA1c<6.5% (week 18, vs dapagliflozin): 1.20
Odds ratio for achieving HbA1c<7% (week 18, vs dapagliflozin): 1.36
Odds ratio, therapeutic response (HbA1c change >0.5% or HbA1c<7%) (week 18, vs dapagliflozin): 1.02
Odds ratio, therapeutic response (HbA1c change >0.7% or HbA1c<7%) (week 18, vs dapagliflozin): 1.09
Odds ratio, therapeutic response (HbA1c change >1% or HbA1c<7%) (week 18, vs dapagliflozin): 1.22
UACR change from baseline, LS mean difference (week 18, vs dapagliflozin): -2.18 g/kg
UGCR change from baseline, LS mean difference (week 18, vs dapagliflozin): 13.34 mg/mg
adiponectin change from baseline, LS mean difference (week 18, vs dapagliflozin): 0.42 µg/mL
body weight change from baseline, LS mean difference (week 18, vs dapagliflozin): -0.15 kg
diastolic blood pressure change from baseline, LS mean difference (week 18, vs dapagliflozin): −0.99 mmHg
fasting C-peptide change from baseline, LS mean difference (week 18, vs dapagliflozin): -0.02 ng/mL
leptin change from baseline, LS mean difference (week 18, vs dapagliflozin): -0.40 ng/mL
systolic blood pressure change from baseline, LS mean difference (week 18, vs dapagliflozin): −1.66 mmHg
total cholesterol change from baseline, LS mean difference (week 18, vs dapagliflozin): 0.61 mg/dL
triglyceride change from baseline, LS mean difference (week 18, vs dapagliflozin): 0.75 mg/dL
Change from baseline in HDL-C, ANCOVA LS mean difference [2]: 0.40 mg/dL
Change from baseline in LDL-C, ANCOVA LS mean difference [2]: -1.10 mg/dL
Change from baseline in total cholesterol, ANCOVA LS mean difference [2]: 0.61 mg/dL
Change from baseline in triglycerides, ANCOVA LS mean difference [2]: 0.75 mg/dL
Change from baseline in HDL-C, ANCOVA LS mean [3]: 3.82 mg/dL
Change from baseline in HDL-C, Mean [3]: 4.09 mg/dL
Change from baseline in HDL-C, Median [3]: 3.00 mg/dL
Change from baseline in LDL-C, ANCOVA LS mean [3]: 0.29 mg/dL
Change from baseline in LDL-C, Mean [3]: 0.94 mg/dL
Change from baseline in LDL-C, Median [3]: 0.00 mg/dL
Change from baseline in total cholesterol, ANCOVA LS mean [3]: 4.27 mg/dL
Change from baseline in total cholesterol, Mean [3]: 5.06 mg/dL
Change from baseline in total cholesterol, Median [3]: 3.00 mg/dL
Change from baseline in triglycerides, ANCOVA LS mean [3]: -11.64 mg/dL
Change from baseline in triglycerides, Mean [3]: -9.60 mg/dL
Change from baseline in triglycerides, Median [3]: -2.00 mg/dL
Fasting HDL-C, Mean [3]: 50.17 mg/dL
Fasting HDL-C, Median [3]: 49.50 mg/dL
Fasting LDL-C, Mean [3]: 72.10 mg/dL
Fasting LDL-C, Median [3]: 68.00 mg/dL
Fasting total cholesterol, Mean [3]: 139.38 mg/dL
Fasting triglycerides, Mean [3]: 109.52 mg/dL
Fasting triglycerides, Median [3]: 95.50 mg/dL
fasting Total cholesterol, Median [3]: 134.00 mg/dL
Change from baseline in diastolic blood pressure, ANCOVA LS mean [4]: −3.41 mmHg
Change from baseline in diastolic blood pressure, LS mean difference (enavogliflozin − dapagliflozin) [4]: −0.99 mmHg
Change from baseline in diastolic blood pressure, Mean [4]: −4.03 mmHg
